Assay results reported in US5939413A, “Piperazine derivatives” (Fujisawa Pharmaceutical Co., Ltd., priority 1995, dated 1999).
Counter-ions that a name gives are not always drawn. Like-named read-outs stand apart in the source and are kept apart here.

Target: T1, h-NK1 receptors (Homo sapiens, UniProt P25103)
T1 construct: expressed in transfected cells; host or cells: CHO cells, permanently expressing; crude membranes
Assay: 125I-BH-Substance P binding to h-NK1 receptors
Conditions: read-out: inhibition rate of 125I-BH-Substance P binding to h-NK1 receptors
Method: (a) Crude CHO cell membrane preparation
CHO cells permanently expressing h-NK1 receptors were harvested and homogenized with a Dounce homogenizer at 4° C. in a buffer (0.25 M sucrose, […] Tris-HCl pH 7.4, 10 mM MgCl2, 1 mM EDTA, 5 μg/ml p-APMSF). The homogenate was centrifuged (500×g, 10 minutes), and the pellet was resuspended in the same buffer, homogenized, and centrifuged. The two supernatants were combined and centrifuged (100,000×g, 1 hour). The crude cell membranes thus isolated were resuspended in buffer (25 mM Tris-HCl pH 7.4, 10 mM MgCl2, 1 mM EDTA, 5 μg/ml p-APMSF) and stored at -80° C. until use.
At the end of the incubation period, the content was quickly filtered over a Wahtman GF/C glass filter (pretreated with 0.1% polyethylene imine for 3 hours prior to use) under aspiration. Each of the filters was then washed four times with 5 ml of buffer (50 mM Tris-HCl pH 7.4, 5 mM MnCl2). […] All data presented are specific binding defined as that displaceable by 3 μM unlabeled Substance P.

[1] = test compound at 0.1 μg/ml, crude membranes of CHO cells expressing h-NK1 receptors

T1 sequence (P25103 whole entry): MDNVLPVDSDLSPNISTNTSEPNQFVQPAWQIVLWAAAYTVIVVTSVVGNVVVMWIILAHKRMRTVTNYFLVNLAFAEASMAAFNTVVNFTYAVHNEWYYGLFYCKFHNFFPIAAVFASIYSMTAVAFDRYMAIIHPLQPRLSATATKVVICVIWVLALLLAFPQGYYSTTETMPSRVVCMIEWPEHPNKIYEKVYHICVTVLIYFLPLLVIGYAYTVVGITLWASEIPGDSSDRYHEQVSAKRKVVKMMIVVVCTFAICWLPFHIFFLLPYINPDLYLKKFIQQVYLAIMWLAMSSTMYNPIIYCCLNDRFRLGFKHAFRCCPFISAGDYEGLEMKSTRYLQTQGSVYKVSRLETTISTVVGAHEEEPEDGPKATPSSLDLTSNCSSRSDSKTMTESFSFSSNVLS

Row | Structure (SMILES) | inhibition at 0.1 µg/mL [1] | inhibition at 0.1 µg/mL
1 | CCOC(=O)CCCN1C[C@@H](Cc2c[nH]c3ccccc23)N(C(=O)c2cc(C(F)(F)F)cc(C(F)(F)F)c2)CC1=O [Example 2, (5R)-4-[3,5-bis(trifluoromethyl)benzoyl]-1-[3-(ethoxycarbonyl)propyl]-5-(1H-indol-3-ylmethyl)piperazin-2-one] | > 90% | 
2 | CCOC(=O)CN1C[C@@H](Cc2c[nH]c3ccccc23)N(C(=O)c2cc(C(F)(F)F)cc(C(F)(F)F)c2)CC1=O [Example 3, (5R)-4-[3,5-bis(trifluoromethyl)benzoyl]-1-(ethoxycarbonylmethyl)-5-(1H-indol-3-ylmethyl)piperazin-2-one] | > 90% | 
3 | NC(=O)CN1C[C@@H](Cc2c[nH]c3ccccc23)N(C(=O)c2cc(C(F)(F)F)cc(C(F)(F)F)c2)CC1=O [Example 5, (5R)-4-[3,5-bis(trifluoromethyl)benzoyl]-1-(carbamoylmethyl)-5-(1H-indol-3-ylmethyl)piperazin-2-one] | > 90% | 
4 | CN1CCCN(C(=O)CN2C[C@@H](Cc3c[nH]c4ccccc34)N(C(=O)c3cc(C(F)(F)F)cc(C(F)(F)F)c3)CC2=O)CC1 [Example 6, (5R)-4-[3,5-bis(trifluoromethyl)benzoyl]-5-(1H-indol-3-ylmethyl)-1-[(4-methyl-1-homopiperazinyl)carbonylmethyl]-piperazin-2-one hydrochloride] |  | > 90%
5 | O=C(CN1C[C@@H](Cc2c[nH]c3ccccc23)N(C(=O)c2cc(C(F)(F)F)cc(C(F)(F)F)c2)CC1=O)N1CCC(N2CCCCC2)CC1 [Example 7-1] | > 90% | 
6 | O=C(CCCN1C[C@@H](Cc2c[nH]c3ccccc23)N(C(=O)c2cc(C(F)(F)F)cc(C(F)(F)F)c2)CC1=O)N1CCC(N2CCCCC2)CC1 [Example 7-3] | > 90% | 
7 | CN1CCCN(C(=O)CCCN2C[C@@H](Cc3c[nH]c4ccccc34)N(C(=O)c3cc(C(F)(F)F)cc(C(F)(F)F)c3)CC2=O)CC1 [Example 7-4] | > 90% | 
